From ChEMBL document CHEMBL1126949 (J Med Chem, 1993)

Target: D(3) dopamine receptor (Rattus norvegicus, UniProt P19020)
Assay: biochemical

Sequence of D(3) dopamine receptor (P19020 whole entry): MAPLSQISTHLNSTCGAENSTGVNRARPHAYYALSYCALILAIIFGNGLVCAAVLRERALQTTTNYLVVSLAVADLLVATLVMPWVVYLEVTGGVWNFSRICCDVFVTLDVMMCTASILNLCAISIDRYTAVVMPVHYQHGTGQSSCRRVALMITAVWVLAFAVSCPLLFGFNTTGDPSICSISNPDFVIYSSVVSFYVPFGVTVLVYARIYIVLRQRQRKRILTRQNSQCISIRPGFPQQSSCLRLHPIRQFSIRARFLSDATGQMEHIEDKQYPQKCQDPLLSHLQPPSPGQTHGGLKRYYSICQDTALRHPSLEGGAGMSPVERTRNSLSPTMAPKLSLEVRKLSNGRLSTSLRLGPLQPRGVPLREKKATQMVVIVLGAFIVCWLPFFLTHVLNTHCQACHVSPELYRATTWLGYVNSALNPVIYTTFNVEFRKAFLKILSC

CCCN(CCC)C1CCc2cccc(O)c2C1 (stereo unspecified) [8-OH-DPAT]
Ki: 0.248 µM
